Measurements as given in ChEMBL document CHEMBL1139080, “3-Mercaptopropionic acids as efficacious inhibitors of activated thrombin activatable fibrinolysis inhibitor (TAFIa)” (Bioorg Med Chem Lett, 2007).

Experiments:
[1] = target: T1, Carboxypeptidase N catalytic chain (Homo sapiens, UniProt P15169); experiment: Inhibition of human carboxypeptidase N
T1 sequence (P15169 whole entry): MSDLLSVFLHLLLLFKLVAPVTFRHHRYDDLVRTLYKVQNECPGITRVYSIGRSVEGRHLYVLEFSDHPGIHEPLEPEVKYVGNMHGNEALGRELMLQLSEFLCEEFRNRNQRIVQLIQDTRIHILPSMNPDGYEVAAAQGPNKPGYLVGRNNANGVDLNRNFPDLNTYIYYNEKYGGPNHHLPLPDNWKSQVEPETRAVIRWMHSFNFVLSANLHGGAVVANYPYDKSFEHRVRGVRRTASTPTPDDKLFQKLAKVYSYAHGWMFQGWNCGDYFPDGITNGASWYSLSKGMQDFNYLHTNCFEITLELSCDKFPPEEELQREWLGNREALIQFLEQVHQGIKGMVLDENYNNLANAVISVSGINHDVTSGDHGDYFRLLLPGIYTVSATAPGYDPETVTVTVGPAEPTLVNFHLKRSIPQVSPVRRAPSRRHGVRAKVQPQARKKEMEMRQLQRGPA

Carboxypeptidase B2 = target: T2, Carboxypeptidase B2 (Homo sapiens, UniProt Q96IY4); experiment: Inhibition of human activated thrombin activatable fibrinolysis inhibitor
T2 sequence (Q96IY4 whole entry): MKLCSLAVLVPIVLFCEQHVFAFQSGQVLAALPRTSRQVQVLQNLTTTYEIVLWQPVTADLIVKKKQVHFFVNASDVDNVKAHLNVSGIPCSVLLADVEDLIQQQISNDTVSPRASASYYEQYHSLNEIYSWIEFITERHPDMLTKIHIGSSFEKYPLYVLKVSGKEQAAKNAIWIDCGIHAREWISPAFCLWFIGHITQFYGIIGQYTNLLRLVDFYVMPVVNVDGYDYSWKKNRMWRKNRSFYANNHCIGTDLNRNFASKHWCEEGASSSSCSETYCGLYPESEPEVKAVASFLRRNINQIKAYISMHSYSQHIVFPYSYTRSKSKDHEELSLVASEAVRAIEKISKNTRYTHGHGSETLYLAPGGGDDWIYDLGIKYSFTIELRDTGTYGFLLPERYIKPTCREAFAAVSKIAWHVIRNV

Carboxypeptidase B = target: T3, Carboxypeptidase B (Sus scrofa, UniProt P09955); experiment: Inhibition of porcine pancreatic carboxypeptidase B
T3 sequence (P09955 whole entry): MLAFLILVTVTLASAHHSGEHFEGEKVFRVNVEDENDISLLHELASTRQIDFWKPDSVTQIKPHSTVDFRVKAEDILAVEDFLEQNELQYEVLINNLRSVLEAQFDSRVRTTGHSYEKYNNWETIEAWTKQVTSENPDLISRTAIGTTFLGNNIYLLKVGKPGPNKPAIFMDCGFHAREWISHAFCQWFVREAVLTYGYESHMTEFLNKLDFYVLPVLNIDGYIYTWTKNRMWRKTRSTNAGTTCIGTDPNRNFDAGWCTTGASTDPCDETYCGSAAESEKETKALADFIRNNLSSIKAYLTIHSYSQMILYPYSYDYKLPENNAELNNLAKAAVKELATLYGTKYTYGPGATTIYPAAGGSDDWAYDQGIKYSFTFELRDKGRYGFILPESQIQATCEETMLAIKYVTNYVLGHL

Plasma = experiment: Inhibition of activated thrombin activatable fibrinolysis inhibitor in human plasma assessed as acceleration of clot lysis time; assay type: functional, cell-free

| IC50 [1] | IC50 (Carboxypeptidase B2) | IC50 (Carboxypeptidase B) | SMILES | Activity (Plasma) |
| --- | --- | --- | --- | --- |
| 2 nM | 8 nM | 10 nM | NC(N)=NCCCC(CS)C(=O)O (stereo not given) |  |
| 3100 nM | 1070 nM | 45 nM | N=C(N)N1CCC(C(CS)C(=O)O)CC1 (stereo not given) |  |
| 29000 nM | 5300 nM | 1040 nM | CC(=N)N1CCC(C(CS)C(=O)O)CC1 (stereo not given) |  |
| 4950 nM | 7350 nM | > 30000 nM | NCC(=O)N1CCC(C(CS)C(=O)O)CC1 (stereo not given) |  |
| 4650 nM | 11 nM | 4650 nM | N=C(N)Nc1ccc(Cl)c(C(CS)C(=O)O)c1 (stereo not given) |  |
| 357 nM | 785 nM | > 30000 nM | Nc1cccc(C(CS)C(=O)O)c1 (stereo not given) |  |
| 60 nM | 37 nM | 195 nM | O=C(O)C(CS)C1CCNCC1 (stereo not given) |  |
| 61 nM | 139 nM | 29 nM | O=C(O)C(CS)CC1CCNCC1 (stereo not given) |  |
| 1000 nM | 905 nM | 845 nM | N=C(N)c1ccc(C(CS)C(=O)O)cc1 (stereo not given) |  |
| 3 nM | 4 nM | 137 nM | N=C(N)Nc1cccc(C(CS)C(=O)O)c1 (racemic) [listing 1 of 2 here] |  |
|  |  |  | N=C(N)Nc1cccc(C(CS)C(=O)O)c1 (racemic) [listing 2 of 2 here] | Dose-dependent effect |
| 8 nM | 5 nM | 36 nM | N=C(N)Nc1cccc(C(CS)C(=O)O)c1 (single isomer, unassigned; (+)) |  |
| 38 nM | 45 nM | 38 nM | N=C(N)N1CCCC(C(CS)C(=O)O)C1 (stereo in doubt; 1b) |  |
| > 30000 nM | 68 nM | > 30000 nM | O=C(O)C(CS)C1CCCNC1 (stereo in doubt; 1c) |  |
| 58 nM | 165 nM | 3 nM | N=C(N)N1CCCC(C(CS)C(=O)O)C1 (stereo in doubt; 1d) |  |
| 1750 nM | 445 nM | 19000 nM | O=C(O)C(CS)C1CCCNC1 (stereo in doubt; 1e) |  |
| 420 nM | 92 nM | 4150 nM | O=C(O)C(CS)CC1CCCNC1 (stereo in doubt; 3a) |  |
| > 30000 nM | 129 nM | 1950 nM | O=C(O)C(CS)CC1CCCNC1 (stereo in doubt; 3b) |  |
| 1720 nM | 3 nM | 1720 nM | N=C(N)Nc1cccc(C(CS)C(=O)O)c1 (stereo in doubt; (-)2a) |  |
